Values joined by “and” are separate entries in the source; they are usually repeats but may differ in a detail not shown here. Equal values may be shown once. Numbers after ± are expanded uncertainties.
Assay: molar heat capacity at constant pressure
Details: 101.33 kPa, Liquid, Flow calorimetry

| Compound | molar heat capacity at constant pressure (268.3 K) | molar heat capacity at constant pressure (278.51 K) | molar heat capacity at constant pressure (288.72 K) | molar heat capacity at constant pressure (298.93 K) | molar heat capacity at constant pressure (309.14 K) | molar heat capacity at constant pressure (319.35 K) | molar heat capacity at constant pressure (329.56 K) | molar heat capacity at constant pressure (339.77 K) | molar heat capacity at constant pressure (260.64 K) | also measured |
| --- | --- | --- | --- | --- | --- | --- | --- | --- | --- | --- |
| CCC(Cl)Cl [1,1-dichloropropane] | 148.83 ± 3 J/K/mol and 149.66 ± 3 J/K/mol | 150.33 ± 3 J/K/mol and 150.24 ± 3 J/K/mol and 149.99 ± 3 J/K/mol | 151.82 ± 3 J/K/mol and 151.99 ± 3 J/K/mol and 152.4 ± 3.1 J/K/mol | 152.82 ± 3.1 J/K/mol and 153.65 ± 3.1 J/K/mol | 155.23 ± 3.1 J/K/mol and 154.57 ± 3.1 J/K/mol and 154.15 ± 3.1 J/K/mol | 155.9 ± 3.1 J/K/mol and 157.73 ± 3.2 J/K/mol and 155.56 ± 3.1 J/K/mol | 157.23 ± 3.1 J/K/mol and 157.31 ± 3.1 J/K/mol and 157.64 ± 3.2 J/K/mol | 158.97 ± 3.2 J/K/mol and 159.06 ± 3.2 J/K/mol and 159.31 ± 3.2 J/K/mol | – | molar heat capacity at constant pressure (268.31 K): 149.49 ± 3 J/K/mol |
| CC(Cl)CCl (configuration not stated) [1,2-dichloropropane] | 153.32 ± 3.1 J/K/mol and 152.99 ± 3.1 J/K/mol | 154.15 ± 3.1 J/K/mol and 153.9 ± 3.1 J/K/mol | 155.4 ± 3.1 J/K/mol and 155.15 ± 3.1 J/K/mol | 156.81 ± 3.1 J/K/mol and 156.64 ± 3.1 J/K/mol | 158.06 ± 3.2 J/K/mol and 157.73 ± 3.2 J/K/mol | 159.39 ± 3.2 J/K/mol and 159.22 ± 3.2 J/K/mol | 161.05 ± 3.2 J/K/mol and 161.22 ± 3.2 J/K/mol | 162.8 ± 3.3 J/K/mol | – | – |
| CC(C)(Cl)Cl [2,2-dichloropropane] | 151.41 ± 3 J/K/mol and 151.24 ± 3 J/K/mol and 150.99 ± 3 J/K/mol | – | 153.98 ± 3.1 J/K/mol and 153.82 ± 3.1 J/K/mol and 154.07 ± 3.1 J/K/mol | 155.65 ± 3.1 J/K/mol and 154.98 ± 3.1 J/K/mol | 157.39 ± 3.2 J/K/mol and 157.14 ± 3.1 J/K/mol and 156.98 ± 3.1 J/K/mol | 159.22 ± 3.2 J/K/mol and 158.81 ± 3.2 J/K/mol and 158.89 ± 3.2 J/K/mol | 161.13 ± 3.2 J/K/mol and 160.22 ± 3.2 J/K/mol | – | 150.33 ± 3 J/K/mol and 150.49 ± 3 J/K/mol and 150.24 ± 3 J/K/mol | molar heat capacity at constant pressure (278.52 K): 152.32 ± 3 J/K/mol and 152.24 ± 3 J/K/mol |
| Cl/C=C/Cl [(E)-1,2-dichloroethene] | 112.74 ± 2.3 J/K/mol [middle of 4 runs] | 112.83 ± 2.3 J/K/mol [middle of 4 runs] | 113.41 ± 2.3 J/K/mol [middle of 4 runs] | 113.99 ± 2.3 J/K/mol [middle of 4 runs] | 114.49 ± 2.3 J/K/mol [middle of 4 runs] | – | – | – | – | – |
| Cl/C=C\Cl [(Z)-1,2-dichloroethene] | 110.58 ± 2.2 J/K/mol and 110.75 ± 2.2 J/K/mol | 111.08 ± 2.2 J/K/mol and 111 ± 2.2 J/K/mol | 111.91 ± 2.2 J/K/mol and 111.75 ± 2.2 J/K/mol | 112.99 ± 2.3 J/K/mol and 112.66 ± 2.3 J/K/mol and 112.49 ± 2.3 J/K/mol | 113.91 ± 2.3 J/K/mol and 113.74 ± 2.3 J/K/mol | – | – | – | – | molar heat capacity at constant pressure (258.09 K): 110.33 ± 2.2 J/K/mol and 110.08 ± 2.2 J/K/mol; molar heat capacity at constant pressure (263.2 K): 110.33 ± 2.2 J/K/mol and 110.42 ± 2.2 J/K/mol; molar heat capacity at constant pressure (273.41 K): 111 ± 2.2 J/K/mol; molar heat capacity at constant pressure (283.62 K): 111.41 ± 2.2 J/K/mol and 111.58 ± 2.2 J/K/mol; molar heat capacity at constant pressure (293.83 K): 112.58 ± 2.3 J/K/mol [middle of 4 runs]; molar heat capacity at constant pressure (304.04 K): 113.41 ± 2.3 J/K/mol and 113.49 ± 2.3 J/K/mol |
| ClC(Cl)(Cl)c1ccccc1 [(trichloromethyl)benzene] | – | – | – | – | 220.75 ± 4.4 J/K/mol | 223.83 ± 4.5 J/K/mol | 226.49 ± 4.5 J/K/mol | 228.56 ± 4.6 J/K/mol | 209.61 ± 4.2 J/K/mol and 209.36 ± 4.2 J/K/mol and 209.11 ± 4.2 J/K/mol | molar heat capacity at constant pressure (265.75 K): 210.94 ± 4.2 J/K/mol and 210.44 ± 4.2 J/K/mol and 210.27 ± 4.2 J/K/mol; molar heat capacity at constant pressure (270.85 K): 211.44 ± 4.2 J/K/mol and 211.35 ± 4.2 J/K/mol and 211.19 ± 4.2 J/K/mol; molar heat capacity at constant pressure (275.96 K): 212.52 ± 4.3 J/K/mol and 212.77 ± 4.3 J/K/mol; molar heat capacity at constant pressure (281.06 K): 214.18 ± 4.3 J/K/mol and 213.93 ± 4.3 J/K/mol; molar heat capacity at constant pressure (286.17 K): 215.59 ± 4.3 J/K/mol and 215.34 ± 4.3 J/K/mol; molar heat capacity at constant pressure (291.27 K): 217.09 ± 4.3 J/K/mol and 217.01 ± 4.3 J/K/mol and 216.92 ± 4.3 J/K/mol; molar heat capacity at constant pressure (296.38 K): 217.76 ± 4.4 J/K/mol and 217.92 ± 4.4 J/K/mol and 218.01 ± 4.4 J/K/mol; molar heat capacity at constant pressure (301.48 K): 219.34 ± 4.4 J/K/mol and 219.17 ± 4.4 J/K/mol and 219.25 ± 4.4 J/K/mol; molar heat capacity at constant pressure (349.98 K): 230.89 ± 4.6 J/K/mol |
| ClC=C(Cl)Cl [trichloroethene] | – | – | – | – | 129.21 ± 2.6 J/K/mol and 129.04 ± 2.6 J/K/mol and 130.29 ± 2.6 J/K/mol | 130.29 ± 2.6 J/K/mol and 131.12 ± 2.6 J/K/mol | 130.95 ± 2.6 J/K/mol and 131.12 ± 2.6 J/K/mol | – | 126.71 ± 2.5 J/K/mol and 126.63 ± 2.5 J/K/mol | molar heat capacity at constant pressure (265.75 K): 126.71 ± 2.5 J/K/mol and 126.8 ± 2.5 J/K/mol and 126.96 ± 2.5 J/K/mol; molar heat capacity at constant pressure (270.85 K): 126.96 ± 2.5 J/K/mol [middle of 4 runs]; molar heat capacity at constant pressure (275.96 K): 127.13 ± 2.5 J/K/mol [middle of 4 runs]; molar heat capacity at constant pressure (281.06 K): 127.38 ± 2.5 J/K/mol and 127.46 ± 2.6 J/K/mol and 127.79 ± 2.6 J/K/mol; molar heat capacity at constant pressure (286.17 K): 127.96 ± 2.6 J/K/mol and 127.88 ± 2.6 J/K/mol and 128.38 ± 2.6 J/K/mol; molar heat capacity at constant pressure (291.27 K): 128.38 ± 2.6 J/K/mol [middle of 4 runs]; molar heat capacity at constant pressure (296.38 K): 128.54 ± 2.6 J/K/mol [middle of 4 runs]; molar heat capacity at constant pressure (301.48 K): 128.96 ± 2.6 J/K/mol [middle of 4 runs] |
